What was measured:
[1] = system: T025OV ovarian cancer patient-derived xenograft; test: T025OV ovarian cancer PDX model; assay type: in vivo, NOG mice; details: 75 mg/kg BID, 50 days
Procedure: tissue from a treatment naïve patient with Stage 1 serous ovarian cancer was obtained from Discovery Life Sciences (Huntsville, AL, Case ID #200000835) and was expanded by subcutaneous implantation into female NOG mice. For tumor development, mice were inoculated subcutaneously on the right flank with isolated […] cells at 1×10^6 viable cells per mouse in 0.2 mL of DPBS mixed with Matrigel® Growth Factor Reduced Basement Membrane Matrix (1:1 ratio) (Corning®, Tewksbury, MA, USA, Cat #356237). Groups were established and drug treatment initiated when the mean tumor volume reached approximately 140-150 mm^3. […] For all studies, tumor volumes and body weights were measured twice weekly. […] Statistical analysis of end-of-study mean tumor volumes for the […] model was performed using an unpaired t-test with Welch's correction.

[2] = system: Resistant SNU601 cells (acquired niraparib resistance); test: 6-day proliferation, nuclei count, PARP inhibitor resistant line; assay type: cell-based, human
Procedure: The SNU601 gastric carcinoma cell line (Creative Bioarray, Cat #CSC-C9686L) was cultured in RPMI media containing glutamax, 10% fetal bovine serum, and 1% penicillin/streptomycin at 37° C., 5% CO2. To generate a PARP inhibitor resistant cell line, an IC20 concentration of niraparib was added to the culture media.
Compound 1 and the PARP inhibitor niraparib were tested in cellular proliferation assays using the parental SNU601 cell line and the SNU601 cell line with acquired PARPi resistance. For the proliferation assays, cells were plated in 96-well plates (Corning costar 3603) at 2500-5000 cells/well in normal growth media. The next day, compound dissolved in vehicle (0.5% DMSO in media) was added to generate a 7- to 10-point concentration curve with half-log dilutions and starting concentrations of 10 or 31.6 μM. After 6 days of compound or vehicle treatment, the cells were fixed with a solution of 8% paraformaldehyde, 0.2% Triton X-100 for 20 minutes. After washing the cells with PBS, the nuclei were stained by the addition of DAPI (4′,6-diamidino-2-phenylindole) and incubation for 20 minutes. The number of nuclei in each well were counted by imaging the plates on an Image Xpress Pico automated cell imaging system (Molecular Devices). The percent proliferation after treatment was determined by normalizing the number of nuclei in treated wells to the vehicle-treated wells. Concentration-response-curves and IC50 values for percent inhibition of proliferation were generated by non-linear regression analysis using GraphPad Prism 10 software.

[3] = system: GP2D cells; test: 6-day growth assay, Compound 1 in combination with exatecan; assay type: cell-based, human
Procedure: The activity of Compound 1 in combination with exatecan was evaluated in the HCC1954, HCC1806, and GP2D cancer cell lines in a 6-day growth assay. HCC1954 (Cat #CRL-2338) and HCC1806 (Cat #CRL-2335) cells were obtained from American Type Culture Collection (ATCC) and maintained in ATCC modified RPMI (Cat #30-2001)+10% FBS (Cat #A3160502)+1% penicillin/streptomycin (Cat #15140-122) in a humidified incubator at 37° C., 5% CO2. GP2D cells were obtained from ECACC (Cat #95090714-1VL) and maintained in DMEM+GlutaMAX (Cat #10566-016)+10% FBS (Cat #A3160502)+1% penicillin/streptomycin (Cat #15140-122). Cells were seeded at 2,500 cells/well (HCC1954 and GP2D) or 2,000 cells/well (HCC1806) in 100 μL of growth medium in a 96-well plate (Corning costar Cat #3603) and allowed to adhere overnight at 37° C. with 5% CO2. The next day, serial dilutions of Compound 1 and exatecan were prepared and added to the corresponding wells of a 96-well plate. A solution of 0.1% DMSO in medium was used as the negative control. Cells were incubated with compound for 6 days at 37° C. with 5% CO2, then fixed, stained, and counted as described in Example 3. Concentration response-curves and IC50 values were generated by non-linear regression analysis using a 4-parameter variable slope fit in GraphPad Prism 10 software. Potential synergy between Compound 1 and exatecan was assessed using Zero interaction potency (ZIP), Highest Single Agent (HSA), Bliss, and Loewe synergy models to find the most synergistic area score, where scores >10 indicate that the interaction between the two drugs is likely to be synergistic (Ianevski et al. 2020).

For `[2H]C([2H])(c1cnn(C)c1)N1C(=O)c2cc(S(=O)(=O)NC3(C)CC3)ccc2N2C1=NC[C@H]2C` [Compound 1, (R)-1-methyl-4-((1-methyl-1H-pyrazol-4-yl)methyl-d2)-N-(1-methylcyclopropyl)-5-oxo-1,2,4,5-tetrahydroimidazo[1,2-a]quinazoline-7-sulfonamide], the “mean decrease in body weight” value [1] was 4.6%, the “better potency than niraparib in PARPi resistant SNU601” value [2] was 10 × and the IC50 ([2]; Homo sapiens, SNU-601, 144 h, read-out: IC50 inhibition of proliferation) was 0.32 µM. It also gave an IC50 ([3]; Homo sapiens, GP2d, exatecan 0.03 nM) of 6 µM, an IC50 ([3]; Homo sapiens, GP2d, exatecan 0.1 nM) of 5.1 µM and an IC50 ([3]; Homo sapiens, GP2d, exatecan 0.3 nM) of 3.1 µM. It also gave an IC50 ([3]; Homo sapiens, GP2d, exatecan 1 nM) of 3.1 µM, an IC50 ([3]; Homo sapiens, GP2d, exatecan 3 nM) of 8.1 µM and an IC50 ([3]; Homo sapiens, GP2d, exatecan 30 nM) of 5.4 µM. It also gave an IC50 ([3]; exatecan 0.03 nM) of 6.3 µM and an IC50 ([3]; exatecan 1 nM) of 3.3 µM.

From patent publication US20260272936A1, “TREATMENT OF CANCER WITH A PARG INHIBITOR” (858 Therapeutics, Inc., priority 2023, published 2026)
